In patent US4332806A, “Antitumor and immunosuppresive 4-carbamoyl imidazolium-5-olate derivatives, pharmaceutical composition and production thereof” (Sumitomo Chemical Company, Limited, priority 1979, dated 1982):

Key:
Lewis lung carcinoma = experiment: Antitumor effect on experimental tumors in mice, Lewis lung carcinoma (solid), tumor inhibitory ratio; format: in vivo, BDF1 male mice; conditions: 100 mg/kg, i.p., schedule 5q2d (day 1, 3, 5, 7 and 9), tumors weighed at day 13
Experimental: The antitumor activities of the compounds of the present invention were estimated according to the methods described in "Cancer chemotherapy reports" Part 3, Vol. 3, (No. 2) p. 13 (1972).
For determining antitumor activities, BDF1 male mice, 5 weeks old, weighing between 18 and 22 grams were used. Each test group was composed of 6 to 7 mice. Two million cells of Lewis Lung Carcinoma were injected in the hind leg. The drug was administered intraperitoneally at day 1, 3, 5, 7 and 9 (or 5q2d).
After killing the mice at day 13, tumors were removed and weighed. The tumor inhibitory ratio was calculated according to the following formula. [formula]

Acute toxicities (LD50) = conditions: mouse, in vivo, ip; ICR male mice, 5 weeks old, intraperitoneal
Experimental: For determining acute toxicities ICR male mice, 5 weeks old, were used. The drug was administered intraperitoneally.

tumors = conditions: Japanese Patent Publication (Kokai) No. 53-5162; cited from earlier work
[1] = Japanese Patent Publication (Kokai) No. 53-5162; cited from earlier work

| Compound | Inhibition Ratio, Lewis lung carcinoma (solid) (Lewis lung carcinoma) [%] | LD50 (Acute toxicities (LD50)) [mg/kg] | antitumor activity, known (in words) (tumors) | immunosuppressive activity, known (in words) [1] |
| --- | --- | --- | --- | --- |
| CC12CC3(C)CC(C)(C1)CC(C(=O)Oc1nc[nH]c1C(N)=O)(C2)C3 [5-carbamoyl-1H-imidazole-4-yl 3',5',7'-trimethyladamantane-1'-carboxylate] | 90 | 670 to 1000 | – | – |
| NC(=O)c1[nH]cnc1OC(=O)C12CC3CC(CC(Br)(C3)C1)C2 [5-carbamoyl-1H-imidazole-4-yl 3'-bromoadamantane-1'-carboxylate] | 66.2 | 670 to 1000 | – | – |
| NC(=O)c1[nH]cnc1OC(=O)C12CC3CC(CC(Cl)(C3)C1)C2 [5-carbamoyl-1H-imidazole-4-yl 3'-chloroadamantane-1'-carboxylate] | 71.1 | > 1000 | – | – |
| NC(=O)c1[nH]cnc1OC(=O)C12CC3CC(CC(F)(C3)C1)C2 [5-carbamoyl-1H-imidazole-4-yl 3'-fluoroadamantane-1'-carboxylate] | 65 | 670 to 1000 | – | – |
| NC(=O)c1[nH]cnc1OC(=O)C12CC3CC(C1)CC(c1ccccc1)(C3)C2 [5-carbamoyl-1H-imidazole-4-yl 3'-phenyladamantane-1'-carboxylate] | 85.7 | – | – | – |
| NC(=O)c1[nH]cnc1OC(=O)C12CC3CC(CC(C3)C1)C2 [Compound (IV), 5-Carbamoyl-1H-imidazole-4-yl adamantane-1'-carboxylate] | – | 250 to 297 | antitumor and immunosuppressive activity | immunosuppressive activity |
